Test results as given in US8999295B2, “Technique for drug and gene delivery to the cell cytosol” (Brigham Young University, priority 2009, dated 2015).

Tests used:
[1] = Volume expansion ratio on liquid-to-vapor transformation; type: physicochemical; details: at body temperature
[2] = cited from earlier work
[3] = at body temperature; cited from earlier work

Row | Structure (SMILES) | expansion ratio (liquid to vapor volume) [1] | solubility in water [2] | vapor pressure [3] [atm]
1 | FC(F)(F)C(F)(F)C(F)(F)C(F)(F)C(F)(F)F [PFC5, perfluoropentane] | approximately 103 | – | –
2 | O=O [oxygen] | – | 1.32 mol/m^3 | –
3 | FC(F)(F)C(F)(F)C(F)(F)C(F)(F)C(F)(F)C(F)(F)F [perfluorohexane] | ~259 | 2.7×10^−4 mol/m^3 | 0.48
4 | FC(F)(F)C(F)(F)C(F)(F)F [perfluoropropane] | – | 0.19 mol/m^3 | –
